Data as given in patent US20150174158A1, “[…] NITRIC OXIDE FOR TREATING RESPIRATORY DISEASES” (Advanced Inhalation Therapies (AIT) Ltd., priority 2012, published 2015).
Read-outs that look alike come from different tables or passages of the source.

Tests used:
methemoglobin (MetHb) = conditions: healthy humans, cited from earlier work
broad range of microbes = conditions: gNO at 160-200 ppm; in vitro, ex vivo and in animal models; cited from earlier work
[1] = test system: bovine respiratory disease; conditions: intermittent gNO; cited from earlier work
[2] = continuous delivery of 80 ppm; cited from earlier work
[3] = cited from earlier work; for mortality: 6 h/day, groups of 10 rats
[4] = test system: TNF, IL-6, IL-8, IL-10, IL-1b and IL-12p70; assay: Phase I safety study: plasma cytokines by cytometric bead array; type: in vivo, human; conditions: vs baseline, all sampling time points
Excerpt: Hematological assessment included a complete blood count and differentials (hemoglobin, hematocrit, red blood cell count, white blood cell count, white blood cell differential, and platelet count) were obtained in order to monitor blood chemistry, hematology and inflammation measurements. The blood chemistry profile included serum creatinine, and liver function tests such as aspartate aminotransferase (AST) serum glutamic oxaloacetic transaminase (SGOT), alkaline phosphatase, and gamma-glutamyl transferase (GGT). The effect of gNO on coagulation was determined by the prothrombin time (PT) and its derived measures of prothrombin ratio (PR) and international normalized ratio (INR). Heparinized plasma was collected at baseline and on days 1, 2, 4, and 5 of gNO administration, and on follow-up days 3, 7 and 21 and frozen at −80° C. Plasma cytokine levels were assessed using the human inflammation cytokine bead array kit (BD Bioscience, Canada). Plasma levels of angiopoietin Ang-1 and Ang-2 were determined by ELISA (R&D Systems, USA).
To assess whether gNO inhalation may cause inflammation or endothelial activation cytokines and the vascular endothelium activation factors Ang-1 and Ang-2 were quantified in peripheral plasma at baseline at various time points thereafter. […]

Klebsiella sp. #3 = conditions: 200 ppm gNO; saline; cited from earlier work
MRSA = conditions: 200 ppm gNO; saline; cited from earlier work
Klebsiella sp. #1 = conditions: 200 ppm gNO; saline; cited from earlier work
S. aureus (ATCC) = conditions: 200 ppm gNO; saline; cited from earlier work
Enterobacter sp. = conditions: 200 ppm gNO; saline; cited from earlier work

For `[N]=O` [gNO, nitric oxide], the MetHb level (methemoglobin (MetHb); gNO 128 ppm for 3 hours) is given as over 5%, the MetHb level (methemoglobin (MetHb); gNO 512 ppm for 55 minutes) is given as over 5% and the antimicrobial effects (broad range of microbes) is given as “potent antimicrobial effects”. The “clinical symptoms of bovine respiratory disease” value [1] was “decrease the clinical symptoms”, the NO2 level [2] was 2.6 ppm and the “animals that died during the first 1-2 days” value ([3]; 300 ppm gNO, group of 10 rats) was “Six”. The mortality ([3]; 400 ppm gNO) was “all of the animals died on the first day”, the mortality ([3]; 500 ppm gNO) was “all of the animals died on the first day” and the MetHb level ([3]; 500 ppm gNO) was 67 percents. The plasma cytokine levels [4] was “unaffected”, the LD100 (Klebsiella sp. #3) was 6 h and the “Latent Period” value (Klebsiella sp. #3) was 3 h. The “−2.5 Log10” value (Klebsiella sp. #3) was 5.1 hours, the LD100 (MRSA) was 5 h and the “Latent Period” value (MRSA) was 3 h. The “−2.5 Log10” value (MRSA) was 4.2 hours, the LD100 (Klebsiella sp. #1) was 6 h and the “Latent Period” value (Klebsiella sp. #1) was 3 h. For the same compound, the “−2.5 Log10” value (Klebsiella sp. #1) was 3.5 hours, the LD100 (S. aureus (ATCC)) was 4 h and the “Latent Period” value (S. aureus (ATCC)) was 3 h. The “−2.5 Log10” value (S. aureus (ATCC)) was 3.3 hours, the LD100 (Enterobacter sp.) was 6 h and the “Latent Period” value (Enterobacter sp.) was 4 h. For the same compound, the “−2.5 Log10” value (Enterobacter sp.) was 5.3 hours.
